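Growth conditions: 96-well plates. Treatment: test compound, 48 hours, 5 concentrations. Analysis: linear interpolation between bracketing concentrations; unreached endpoints set to highest concentration. GI50: concentration for 50% inhibition of growth.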 The source made the active and inactive calls. Cut-off read from the data, not from the text of the source: active = GI50 up to about 1.1 µM and inactive = higher.
Columns and labels:
Assay in all cases: NCI-60 cell line screen, 48 h
[1] = system: UACC-257
[2] = system: HCT-15
[3] = system: MOLT-4
[4] = system: OVCAR-8
[5] = system: Malme-3M
[6] = system: EKVX
[7] = system: IGROV-1
[8] = system: UO-31
[9] = system: NCI-H460
[10] = system: SN12C
[11] = system: SF-295
[12] = system: KM12
[13] = system: SR
[14] = system: SF-539
[15] = system: SNB-19
[16] = system: LOX IMVI
[17] = system: M19-MEL
[18] = system: DU-145
[19] = system: MDA-N
[20] = system: NCI/ADR-RES

SMILES | GI50 [1] | GI50 [2] [µM] | GI50 [3] | GI50 [4] | GI50 [5] | GI50 [6] | GI50 [7] | GI50 [8] | GI50 [9] | GI50 [10] | GI50 [11] | GI50 [12] | GI50 [13] | GI50 [14] | GI50 [15] | GI50 [16] | GI50 [17] | GI50 [18] | GI50 [19] | GI50 [20]
NS(=O)(=O)c1ccc(NC(=O)c2cccc3c(=O)c4ccccc4[nH]c23)cc1 | > 100 µM (inactive) | > 100 | 18.2 µM (inactive) | > 100 µM (inactive) | 24.7 µM (inactive) | > 100 µM (inactive) | 78.5 µM (inactive) | 18.6 µM (inactive) | > 100 µM (inactive) | 94.4 µM (inactive) | > 100 µM (inactive) | 22.2 µM (inactive) | 22 µM (inactive) | 22.7 µM (inactive) | 76.4 µM (inactive) | 20.7 µM (inactive) | 73.3 µM (inactive) |  |  | 
CC(C)[C@@H]1C=C(c2ccccc2)c2ccccc2C1C(C#N)(C#N)C(C)C (stereo not given in full) | 54.5 µM (inactive) | > 100 | 48.6 µM (inactive) | > 100 µM (inactive) | > 100 µM (inactive) | > 100 µM (inactive) | > 100 µM (inactive) | > 100 µM (inactive) | > 100 µM (inactive) | > 100 µM (inactive) | > 100 µM (inactive) | > 100 µM (inactive) | 46.3 µM (inactive) | > 100 µM (inactive) | > 100 µM (inactive) | > 100 µM (inactive) | > 100 µM (inactive) |  |  | 
Cc1ccc(NC(=O)C(=O)C2NC(=S)NC2=O)c([N+](=O)[O-])c1 (stereo not given) | > 100 µM (inactive) | > 100 | > 100 µM (inactive) | > 100 µM (inactive) | > 100 µM (inactive) | 57.3 µM (inactive) | > 100 µM (inactive) | > 100 µM (inactive) | > 100 µM (inactive) | > 100 µM (inactive) | > 100 µM (inactive) | > 100 µM (inactive) | > 100 µM (inactive) | > 100 µM (inactive) | > 100 µM (inactive) | > 100 µM (inactive) | > 100 µM (inactive) |  |  | 
Cc1cc(O)nc(NN2C(Cl)C(=O)C2c2ccc(Cl)cc2)n1 (stereo not given) | 21.6 µM (inactive) | 15.1 | 6.65 µM (inactive) | 19.1 µM (inactive) | 16.8 µM (inactive) | 16.6 µM (inactive) | 3.61 µM (inactive) | 25.6 µM (inactive) | 16.4 µM (inactive) | 16.7 µM (inactive) | 8.61 µM (inactive) | 10.6 µM (inactive) | 1.27 µM (inactive) | 16.3 µM (inactive) | 19.4 µM (inactive) | 4.15 µM (inactive) | 17.7 µM (inactive) | 23.3 µM (inactive) | 8.53 µM (inactive) | 20.7 µM (inactive)
CC1(C)OCN(c2ccc(N3CCOCC3)cc2)Cn2c1nc1ccccc12 | 46.1 µM (inactive) | > 100 | > 100 µM (inactive) | > 100 µM (inactive) | > 100 µM (inactive) | > 100 µM (inactive) | > 100 µM (inactive) | > 100 µM (inactive) | > 100 µM (inactive) | > 100 µM (inactive) | > 100 µM (inactive) | > 100 µM (inactive) | 31.2 µM (inactive) | 88.1 µM (inactive) | > 100 µM (inactive) | 31.8 µM (inactive) | > 100 µM (inactive) |  |  | 
C=C1C(=O)C23C(O)C1CC[C@H]2C12CCCC(C)(COC(C)=O)[C@H]1[C@H](O)[C@]3(O)OC2 (stereo not given in full) | 1.14 µM (inactive) | 0.817 | 0.138 µM (active) | 1.7 µM (inactive) | 1.42 µM (inactive) | 4.01 µM (inactive) | 2.08 µM (inactive) | 1.77 µM (inactive) | 2.24 µM (inactive) | 1.71 µM (inactive) | 0.891 µM (active) | 2.37 µM (inactive) |  | 1.68 µM (inactive) | 3.44 µM (inactive) | 1.52 µM (inactive) | 2.01 µM (inactive) | 4.3 µM (inactive) |  | 

From ChEMBL document CHEMBL1201862, “PubChem BioAssay data set” (2004)
